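In this assay, cells in 96-well plates receive the compound at five concentrations for 48 hours. Endpoints are linearly interpolated between the surrounding concentrations. TGI: total growth inhibition.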
What was measured:
Assay in all cases: inhibition of tumour cell growth, NCI panel, 48 h
IGROV1 ovarian = test system: IGROV1 ovarian
A549 NSCLC = test system: A549 NSCLC
SF-295 CNS = test system: SF-295 CNS
HCC-2998 colon = test system: HCC-2998 colon
EKVX NSCLC = test system: EKVX NSCLC
U251 CNS = test system: U251 CNS
HCT-116 colon = test system: HCT-116 colon
DU-145 prostate = test system: DU-145 prostate
SK-MEL-28 melanoma = test system: SK-MEL-28 melanoma
SN12C renal = test system: SN12C renal
OVCAR-8 ovarian = test system: OVCAR-8 ovarian
SW-620 colon = test system: SW-620 colon
UO-31 renal = test system: UO-31 renal
COLO 205 colon = test system: COLO 205 colon
NCI/ADR-RES ovarian = test system: NCI/ADR-RES ovarian
786-0 renal = test system: 786-0 renal
K-562 leukemia = test system: K-562 leukemia
HOP-92 NSCLC = test system: HOP-92 NSCLC
SF-268 CNS = test system: SF-268 CNS
UACC-62 melanoma = test system: UACC-62 melanoma

CN1C(=O)c2ccccc2OC12C=Cc1ccc(O)cc1O2 (stereo not given)
TGI (IGROV1 ovarian): > 100 µM
TGI (A549 NSCLC): > 100 µM
TGI (SF-295 CNS): > 100 µM
TGI (HCC-2998 colon): 50.8 µM
TGI (EKVX NSCLC): 64.5 µM
TGI (U251 CNS): > 100 µM
TGI (HCT-116 colon): 81 µM
TGI (DU-145 prostate): 69.7 µM
TGI (SK-MEL-28 melanoma): > 100 µM
TGI (SN12C renal): > 100 µM
TGI (OVCAR-8 ovarian): 37.4 µM
TGI (SW-620 colon): > 100 µM
TGI (UO-31 renal): 57.7 µM
TGI (COLO 205 colon): 65.1 µM
TGI (NCI/ADR-RES ovarian): 40.4 µM
TGI (786-0 renal): > 100 µM
TGI (K-562 leukemia): > 100 µM
TGI (HOP-92 NSCLC): 80.9 µM
TGI (SF-268 CNS): > 100 µM
TGI (UACC-62 melanoma): 91.6 µM

O=C(Oc1cccnc1)c1cc2cc(CCl)ccc2oc1=O
TGI (IGROV1 ovarian): 66.3 µM
TGI (A549 NSCLC): > 100 µM
TGI (SF-295 CNS): > 100 µM
TGI (HCC-2998 colon): > 100 µM
TGI (EKVX NSCLC): 52.1 µM
TGI (U251 CNS): 57.2 µM
TGI (HCT-116 colon): 38.7 µM
TGI (DU-145 prostate): 39.5 µM
TGI (SK-MEL-28 melanoma): > 100 µM
TGI (SN12C renal): 50.1 µM
TGI (OVCAR-8 ovarian): > 100 µM
TGI (SW-620 colon): > 100 µM
TGI (UO-31 renal): 44.5 µM
TGI (COLO 205 colon): 69.5 µM
TGI (NCI/ADR-RES ovarian): 76.6 µM
TGI (786-0 renal): 36.1 µM
TGI (K-562 leukemia): 40.6 µM
TGI (HOP-92 NSCLC): 36.9 µM
TGI (SF-268 CNS): 45.3 µM
TGI (UACC-62 melanoma): 36.9 µM

CC1=NC(=Cc2cc(Br)cc(Br)c2)C(=O)N1n1c(-c2ccccc2)nc2ccccc2c1=O
TGI (IGROV1 ovarian): > 100 µM
TGI (A549 NSCLC): > 100 µM
TGI (SF-295 CNS): > 100 µM
TGI (HCC-2998 colon): > 100 µM
TGI (EKVX NSCLC): > 100 µM
TGI (U251 CNS): > 100 µM
TGI (HCT-116 colon): > 100 µM
TGI (DU-145 prostate): > 100 µM
TGI (SK-MEL-28 melanoma): > 100 µM
TGI (SN12C renal): > 100 µM
TGI (OVCAR-8 ovarian): > 100 µM
TGI (SW-620 colon): > 100 µM
TGI (UO-31 renal): > 100 µM
TGI (COLO 205 colon): > 100 µM
TGI (NCI/ADR-RES ovarian): > 100 µM
TGI (786-0 renal): > 100 µM
TGI (K-562 leukemia): > 100 µM
TGI (HOP-92 NSCLC): > 100 µM
TGI (SF-268 CNS): > 100 µM
TGI (UACC-62 melanoma): > 100 µM

Nc1nc(NCC2(CO)CC2)cc(=O)[nH]1
TGI (IGROV1 ovarian): > 100 µM
TGI (A549 NSCLC): > 100 µM
TGI (SF-295 CNS): > 100 µM
TGI (HCC-2998 colon): > 100 µM
TGI (EKVX NSCLC): > 100 µM
TGI (U251 CNS): > 100 µM
TGI (HCT-116 colon): > 100 µM
TGI (DU-145 prostate): > 100 µM
TGI (SK-MEL-28 melanoma): > 100 µM
TGI (SN12C renal): > 100 µM
TGI (OVCAR-8 ovarian): > 100 µM
TGI (SW-620 colon): > 100 µM
TGI (UO-31 renal): > 100 µM
TGI (COLO 205 colon): > 100 µM
TGI (NCI/ADR-RES ovarian): > 100 µM
TGI (786-0 renal): > 100 µM
TGI (K-562 leukemia): > 100 µM
TGI (HOP-92 NSCLC): > 100 µM
TGI (SF-268 CNS): > 100 µM
TGI (UACC-62 melanoma): > 100 µM

N#Cc1[nH]c(=S)[nH]c1N
TGI (IGROV1 ovarian): > 100 µM
TGI (A549 NSCLC): > 100 µM
TGI (SF-295 CNS): > 100 µM
TGI (HCC-2998 colon): > 100 µM
TGI (EKVX NSCLC): > 100 µM
TGI (U251 CNS): > 100 µM
TGI (HCT-116 colon): > 100 µM
TGI (DU-145 prostate): > 100 µM
TGI (SK-MEL-28 melanoma): > 100 µM
TGI (SN12C renal): > 100 µM
TGI (OVCAR-8 ovarian): > 100 µM
TGI (SW-620 colon): > 100 µM
TGI (UO-31 renal): > 100 µM
TGI (COLO 205 colon): > 100 µM
TGI (NCI/ADR-RES ovarian): > 100 µM
TGI (786-0 renal): > 100 µM
TGI (K-562 leukemia): > 100 µM
TGI (HOP-92 NSCLC): > 100 µM
TGI (SF-268 CNS): > 100 µM
TGI (UACC-62 melanoma): > 100 µM

COC(=O)[C@H](Cc1c[nH]c2ccccc12)NC(=O)c1ccc(CNC(=O)/C(C)=C/c2ccccc2)cc1
TGI (IGROV1 ovarian): > 100 µM
TGI (A549 NSCLC): > 100 µM
TGI (SF-295 CNS): > 100 µM
TGI (HCC-2998 colon): 73 µM
TGI (EKVX NSCLC): > 100 µM
TGI (U251 CNS): > 100 µM
TGI (HCT-116 colon): > 100 µM
TGI (DU-145 prostate): > 100 µM
TGI (SK-MEL-28 melanoma): 36.7 µM
TGI (SN12C renal): > 100 µM
TGI (OVCAR-8 ovarian): > 100 µM
TGI (SW-620 colon): > 100 µM
TGI (UO-31 renal): > 100 µM
TGI (COLO 205 colon): 50.5 µM
TGI (NCI/ADR-RES ovarian): > 100 µM
TGI (786-0 renal): > 100 µM
TGI (K-562 leukemia): > 100 µM
TGI (HOP-92 NSCLC): 34.3 µM
TGI (SF-268 CNS): > 100 µM
TGI (UACC-62 melanoma): 41.7 µM

Source: PubChem BioAssay (NCI)
